According to patent US12697328B2, “Methods for treating metastasis with cathepsin C inhibitors” (Shanghai Institute of Nutrition and Health, Chinese Academy …, priority 2020, dated 2026):

System: murine neutrophils
Assay: In vitro NET analysis of neutrophils cultured in 4T07 or 4T1 conditioned media
Type: cell-based
Details: Sivelestat 10 μM or DNase I 1 μg/ml; FIG. 8F
Procedure: To assess NET formation, neutrophils (2.5×10^5 cells) were seeded on coverslips coated with poly-L-lysine (P4707, Sigma) in 24-well plates for 30 min before adding 10% cancer cell CM, Sivelestat (10 μM), PMA (20 nM, Sigma), Cl-amidine (100 μM, Selleck) and/or DNase I (1 μg/ml). After 12 to 16 h at 37° C., neutrophils were fixed with 4% paraformaldehyde (PFA) for 10 min at room temperature, washed twice with PBS and permeabilized in 0.1% Triton X-100 for 5 min. […] NET area quantification was performed using the DANA method (Rebernick et al., “DNA area and NETosis analysis (DANA): a high-throughput method to quantify neutrophil extracellular traps in fluorescent microscope images,” Biol. Proced. Online 20:7 (2018)). Briefly, the areas of structures depicting NET morphology and positive for Ci-H3 or total H3 were counted as NETotic cell areas, and the NET area percentages were analyzed as NETotic cell areas divided by total DNA areas. The percentages of NETotic cells were analyzed as previously described ([…]). […] The percentage of NETotic cells was counted as the numbers of NETotic cells divided by the total cell numbers. […]

## CC(C)(C)C(=O)Oc1ccc(S(=O)(=O)Nc2ccccc2C(=O)NCC(=O)O)cc1 [Silvelestat]
  NET formation induced by CTSC (percentage area covered by NETs): blocks the ability of CTSC to induce NET formation
